From paper PMC4965013, “Open Source Drug Discovery with the Malaria Box Compound Collection for Neglected Diseases and Beyond” (PLoS Pathogens, 2016)

How the values were obtained:
[1] = test system: P. falciparum 3D7 trophozoites; test: Metabolomic fingerprint profiling LC-MS; format: cell-based, Plasmodium falciparum; set-up: UDP-D-glucose / ADP-D-glucose: unit not given here; details: for Acetyllysine / N-acetyl-L-ornithine / N-carbamoyl-L-aspartate / NADPH / dAMP / dCMP / dTDP / dTMP / dTTP / dihydroorotate / orotate / DLH / DLS/SDL/SID / PD / PEE / PVNF / 3-phosphoglycerate / ADP-D-glucose / ATP / CDP / D-sedoheptulose-1/7-phosphate / FAD / GMP / NAD+ / NADP+ / Octoluse Bisphosphate / Pyroglutamic acid / UDP-D-glucose / UDP-D-glucuronate / UDP-N-acetyl-glucosamine / UDP / UMP / UTP / a-ketoglutarate / citrate/isocitrate / cytidine / dATP / dGMP/AMP / fumarate / glucose-1/6-phosphate / glycerate / guanine / guanosine / hypoxanthine / indole / inosine / nicotinate / ornithine / phosphoenolpyruvate / pyruvate / ribose-phosphate / sarcosine/alanine / sn-glycerol-3-phosphate / succinate/methylmalonic acid / uridine / xanthosine: S2 Table Metabolomics; for Acetyllysine: metabolite Acetyllysine; for N-acetyl-L-ornithine: metabolite N-acetyl-L-ornithine; for N-carbamoyl-L-aspartate: metabolite N-carbamoyl-L-aspartate; for NADPH: metabolite NADPH; for dAMP: metabolite dAMP; for dCMP: metabolite dCMP; for dTDP: metabolite dTDP; for dTMP: metabolite dTMP; for dTTP: metabolite dTTP; for dihydroorotate: metabolite dihydroorotate; for orotate: metabolite orotate; for DLH: peptide DLH; for DLS/SDL/SID: peptide DLS/SDL/SID; for PD: peptide PD; for PEE: peptide PEE; for PVNF: peptide PVNF; for 3-phosphoglycerate: metabolite 3-phosphoglycerate; for ADP-D-glucose: metabolite ADP-D-glucose; for ATP: metabolite ATP; for CDP: metabolite CDP; for CDP / D-sedoheptulose-1/7-phosphate / GMP / Octoluse Bisphosphate / UDP / UMP / UTP / citrate/isocitrate / dGMP/AMP / fumarate / glucose-1/6-phosphate / glycerate / guanine / guanosine / inosine / pyruvate / sarcosine/alanine / succinate/methylmalonic acid / uridine / xanthosine: change in metabolite level after compound treatment; for D-sedoheptulose-1/7-phosphate: metabolite D-sedoheptulose-1/7-phosphate; for FAD: metabolite FAD; for GMP: metabolite GMP; for NAD+: metabolite NAD+; for NADP+: metabolite NADP+; for Octoluse Bisphosphate: metabolite Octoluse Bisphosphate; for Pyroglutamic acid: metabolite Pyroglutamic acid; for UDP-D-glucose: metabolite UDP-D-glucose; for UDP-D-glucuronate: metabolite UDP-D-glucuronate; for UDP-N-acetyl-glucosamine: metabolite UDP-N-acetyl-glucosamine; for UDP: metabolite UDP; for UMP: metabolite UMP; for UTP: metabolite UTP; for a-ketoglutarate: metabolite a-ketoglutarate; for citrate/isocitrate: metabolite citrate/isocitrate; for cytidine: metabolite cytidine; for dATP: metabolite dATP; for dGMP/AMP: metabolite dGMP/AMP; for fumarate: metabolite fumarate; for glucose-1/6-phosphate: metabolite glucose-1/6-phosphate; for glycerate: metabolite glycerate; for guanine: metabolite guanine; for guanosine: metabolite guanosine; for hypoxanthine: metabolite hypoxanthine; for indole: metabolite indole; for inosine: metabolite inosine; for 2_3-Diphosphoglyceric acid / 4-phosphopantothenate / 6-phospho-D-gluconate / FMN / IMP / Pyrophosphate / Sedoheptoluse bisphosphate / cyclic-AMP / glutathione disulfide / lactate / myo-inositol: metabolite level change after treatment; for nicotinate: metabolite nicotinate; for ornithine: metabolite ornithine; for phosphoenolpyruvate: metabolite phosphoenolpyruvate; for pyruvate: metabolite pyruvate; for ribose-phosphate: metabolite ribose-phosphate; for sarcosine/alanine: metabolite sarcosine/alanine; for sn-glycerol-3-phosphate: metabolite sn-glycerol-3-phosphate; for succinate/methylmalonic acid: metabolite succinate/methylmalonic acid; for uridine: metabolite uridine; for xanthosine: metabolite xanthosine
[2] = test system: P. falciparum; test: EC50 listed in S2 Table Metabolomics (used to set the concentration tested); format: cell-based; details: Plasmodium falciparum; EC50 used for Factor_XEC50 in metabolomics; read-out: EC50_nM

OC(CNC1CCCCC1)Cn1c2ccccc2c2ccccc21 (stereo not shown) [MMV009063] showed an Acetyllysine [1] of -0.9697, a N-acetyl-L-ornithine [1] of -0.4154 and a N-carbamoyl-L-aspartate [1] of -0.3154. For the same compound, the NADPH [1] was 0.37, the dAMP [1] was 0.9178 and the dCMP [1] was 4.938. It also gave a dTDP [1] of 0.7098, a dTMP [1] of 0.6703 and a dTTP [1] of 1.896. It also gave a dihydroorotate [1] of -0.3265, an orotate [1] of -0.5164 and a DLH [1] of -0.8674. It also gave a DLS/SDL/SID [1] of -0.2423, a PD [1] of -0.8841 and a PEE [1] of -0.7244. It also gave a PVNF [1] of -0.6115, a 3-phosphoglycerate [1] of 0.9312 and an ADP-D-glucose [1] of 0.2307. The ATP [1] was 0.3671, the CDP [1] was 0.5148 and the D-sedoheptulose-1/7-phosphate [1] was -0.5559. For the same compound, the FAD [1] was 0.5708, the GMP [1] was 0.12 and the “NAD+” value [1] was -0.1605. The “NADP+” value [1] was 0.3102, the “Octoluse Bisphosphate” value [1] was 0.2421 and the Pyroglutamic acid [1] was 0.1616. It also gave a UDP-D-glucose [1] of 0.2936, a UDP-D-glucuronate [1] of 0.2553 and a UDP-N-acetyl-glucosamine [1] of 0.3811. It also gave a UDP [1] of 0.491, a UMP [1] of 0.4628 and a UTP [1] of 0.409. It also gave an a-ketoglutarate [1] of -0.1494, a citrate/isocitrate [1] of 0.2484 and a cytidine [1] of 0.7064. It also gave a dATP [1] of 0.1129, a dGMP/AMP [1] of 0.3842 and a fumarate [1] of -0.3431. The glucose-1/6-phosphate [1] was 1.039, the glycerate [1] was 0.4301 and the guanine [1] was 0.4492. The guanosine [1] was 0.3938, the hypoxanthine [1] was 0.2685 and the indole [1] was -0.01895. The inosine [1] was 0.305, the 2_3-Diphosphoglyceric acid [1] was 0.9003 and the 4-phosphopantothenate [1] was 0.6116. The 6-phospho-D-gluconate [1] was 0.5165, the FMN [1] was 0.5888 and the IMP [1] was 0.4443. The Pyrophosphate [1] was -0.0661, the Sedoheptoluse bisphosphate [1] was 0.4491 and the cyclic-AMP [1] was 0.4153. It also gave a glutathione disulfide [1] of 0.4569, a lactate [1] of 0.8013 and a myo-inositol [1] of 0.939. It also gave a nicotinate [1] of 0.31, an ornithine [1] of 0.3762 and a phosphoenolpyruvate [1] of 0.7676. It also gave a pyruvate [1] of 0.735, a ribose-phosphate [1] of 0.3548 and a sarcosine/alanine [1] of -0.09066. It also gave a sn-glycerol-3-phosphate [1] of 0.5324, a succinate/methylmalonic acid [1] of -0.07148 and a uridine [1] of 0.5909. For the same compound, the xanthosine [1] was -0.08621 and the EC50 [2] was 0.293 µM.
Work on COc1ccc(C(=O)Nc2nonc2-c2ccc(OC)c(OC)c2)cc1Cl [MMV011567] yielded an Acetyllysine [1] of -2.7765, a N-acetyl-L-ornithine [1] of -1.047 and a N-carbamoyl-L-aspartate [1] of -1.546. For the same compound, the NADPH [1] was -0.479, the dAMP [1] was 2.616 and the dCMP [1] was 7.615. It also gave a dTDP [1] of 4.376, a dTMP [1] of 5.592 and a dTTP [1] of 4.192. It also gave a dihydroorotate [1] of -1.311, an orotate [1] of 1.606 and a DLH [1] of -3.738. For the same compound, the DLS/SDL/SID [1] was -3.085, the PD [1] was -0.447 and the PEE [1] was -2.659. It also gave a PVNF [1] of -4.149, a 3-phosphoglycerate [1] of -0.4312 and an ADP-D-glucose [1] of -0.3179. It also gave an ATP [1] of 0.7262, a CDP [1] of 1.853 and a D-sedoheptulose-1/7-phosphate [1] of -0.5728. The FAD [1] was -0.6926, the GMP [1] was -3.051 and the “NAD+” value [1] was -0.6365. For the same compound, the “NADP+” value [1] was -0.4288, the “Octoluse Bisphosphate” value [1] was -1.352 and the Pyroglutamic acid [1] was 0.8228. For the same compound, the UDP-D-glucose [1] was 0.2841, the UDP-D-glucuronate [1] was 0.3235 and the UDP-N-acetyl-glucosamine [1] was 0.4364. For the same compound, the UDP [1] was 1.166, the UMP [1] was 0.1995 and the UTP [1] was 0.7659. The a-ketoglutarate [1] was -0.1289, the citrate/isocitrate [1] was 1.575 and the cytidine [1] was 0.6834. It also gave a dATP [1] of 1.434, a dGMP/AMP [1] of -0.9068 and a fumarate [1] of 0.5595. For the same compound, the glucose-1/6-phosphate [1] was -0.4437, the glycerate [1] was -0.2059 and the guanine [1] was 1.129. For the same compound, the guanosine [1] was 0.9628, the hypoxanthine [1] was 0.8431 and the indole [1] was 0.1357. It also gave an inosine [1] of -0.4655, a 2_3-Diphosphoglyceric acid [1] of -0.4768 and a 4-phosphopantothenate [1] of 0.1624. The 6-phospho-D-gluconate [1] was 0.2149, the FMN [1] was 0.2743 and the IMP [1] was 0.2415. It also gave a Pyrophosphate [1] of -0.9055, a Sedoheptoluse bisphosphate [1] of -0.2891 and a cyclic-AMP [1] of 0.1677. It also gave a glutathione disulfide [1] of 0.2649, a lactate [1] of -0.6986 and a myo-inositol [1] of -1.672. The nicotinate [1] was 1.088, the ornithine [1] was 0.1615 and the phosphoenolpyruvate [1] was -0.2076. The pyruvate [1] was -1.296, the ribose-phosphate [1] was -0.6006 and the sarcosine/alanine [1] was -1.205. The sn-glycerol-3-phosphate [1] was 0.6609, the succinate/methylmalonic acid [1] was -0.1426 and the uridine [1] was 0.07808. The xanthosine [1] was 0.9674 and the EC50 [2] was 0.516 µM.
